Publication PMC9448386, “Discovery of novel conjugates of quinoline and thiazolidinone urea as potential anti-colorectal cancer agent” (Journal of Enzyme Inhibition and Medicinal Chemistry, 2022)

Tests used:
AXL = molecular target: T1, AXL (Homo sapiens, UniProt P30530); experiment: Mobility shift assay, AXL; type: biochemical; conditions: mean of two independent experiments, SD shown
T1 sequence (P30530 26-894): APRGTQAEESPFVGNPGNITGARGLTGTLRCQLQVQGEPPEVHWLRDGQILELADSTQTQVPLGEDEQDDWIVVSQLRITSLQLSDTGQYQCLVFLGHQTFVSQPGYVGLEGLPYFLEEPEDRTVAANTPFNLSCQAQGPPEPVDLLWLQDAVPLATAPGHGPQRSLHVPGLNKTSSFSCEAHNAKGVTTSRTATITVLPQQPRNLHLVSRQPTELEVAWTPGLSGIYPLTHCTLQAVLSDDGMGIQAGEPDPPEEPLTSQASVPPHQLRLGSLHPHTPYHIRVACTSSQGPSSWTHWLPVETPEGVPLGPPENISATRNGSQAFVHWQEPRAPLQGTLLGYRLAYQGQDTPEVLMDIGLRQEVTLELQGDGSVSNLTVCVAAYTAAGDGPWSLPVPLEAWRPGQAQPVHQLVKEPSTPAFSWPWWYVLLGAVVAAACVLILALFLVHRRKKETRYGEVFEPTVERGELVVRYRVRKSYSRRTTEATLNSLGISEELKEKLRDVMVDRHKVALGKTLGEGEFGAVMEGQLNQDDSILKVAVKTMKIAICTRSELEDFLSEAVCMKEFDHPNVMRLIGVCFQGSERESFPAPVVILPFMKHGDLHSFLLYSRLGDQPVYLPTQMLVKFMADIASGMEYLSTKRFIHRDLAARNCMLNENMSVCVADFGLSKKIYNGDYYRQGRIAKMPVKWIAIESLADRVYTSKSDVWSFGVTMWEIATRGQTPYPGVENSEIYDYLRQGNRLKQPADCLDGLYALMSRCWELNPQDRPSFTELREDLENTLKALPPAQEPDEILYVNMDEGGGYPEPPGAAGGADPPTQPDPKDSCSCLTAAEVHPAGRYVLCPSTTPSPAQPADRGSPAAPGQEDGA
Protocol: (§1) Kinase inhibitory activity against HGFR, MST1R, ABL, PDGFRβ, AXL, FLT3, RET, c-Src, and VEGFR-2 was evaluated by the mobility shift assay. Detailed operation could be found in our previous research.

VEGFR-2 = VEGFR-2 (Homo sapiens, UniProt P35968); experiment: Mobility shift assay, VEGFR-2; type: biochemical; conditions: mean of two independent experiments, SD shown
Protocol: as §1

[1] = MTT assay, cytotoxicity against FHC cells; type: cell-based; conditions: FHC cells (normal colorectal mucosa epithelial cells); human normal colorectal mucosa epithelial cells; average of three separate determinations
Protocol: In order to investigate the cell selectivity index, the cytotoxicity of potent compounds against human normal colorectal mucosa epithelial cell FHC cells was determined.
(§2) Taking lead compound BC2021-104511-15i, Fruquintinib and Regorafenib as positive controls, the cytotoxic activity against HT-29, HCT-116, COLO-205 and FHC cell lines by MTT assay. Detailed operation could be found in our previous study.

ABL = ABL (Homo sapiens, UniProt P00519); experiment: Mobility shift assay, ABL; type: biochemical; conditions: mean of two independent experiments, SD shown
ABL, sequence (P00519 whole entry): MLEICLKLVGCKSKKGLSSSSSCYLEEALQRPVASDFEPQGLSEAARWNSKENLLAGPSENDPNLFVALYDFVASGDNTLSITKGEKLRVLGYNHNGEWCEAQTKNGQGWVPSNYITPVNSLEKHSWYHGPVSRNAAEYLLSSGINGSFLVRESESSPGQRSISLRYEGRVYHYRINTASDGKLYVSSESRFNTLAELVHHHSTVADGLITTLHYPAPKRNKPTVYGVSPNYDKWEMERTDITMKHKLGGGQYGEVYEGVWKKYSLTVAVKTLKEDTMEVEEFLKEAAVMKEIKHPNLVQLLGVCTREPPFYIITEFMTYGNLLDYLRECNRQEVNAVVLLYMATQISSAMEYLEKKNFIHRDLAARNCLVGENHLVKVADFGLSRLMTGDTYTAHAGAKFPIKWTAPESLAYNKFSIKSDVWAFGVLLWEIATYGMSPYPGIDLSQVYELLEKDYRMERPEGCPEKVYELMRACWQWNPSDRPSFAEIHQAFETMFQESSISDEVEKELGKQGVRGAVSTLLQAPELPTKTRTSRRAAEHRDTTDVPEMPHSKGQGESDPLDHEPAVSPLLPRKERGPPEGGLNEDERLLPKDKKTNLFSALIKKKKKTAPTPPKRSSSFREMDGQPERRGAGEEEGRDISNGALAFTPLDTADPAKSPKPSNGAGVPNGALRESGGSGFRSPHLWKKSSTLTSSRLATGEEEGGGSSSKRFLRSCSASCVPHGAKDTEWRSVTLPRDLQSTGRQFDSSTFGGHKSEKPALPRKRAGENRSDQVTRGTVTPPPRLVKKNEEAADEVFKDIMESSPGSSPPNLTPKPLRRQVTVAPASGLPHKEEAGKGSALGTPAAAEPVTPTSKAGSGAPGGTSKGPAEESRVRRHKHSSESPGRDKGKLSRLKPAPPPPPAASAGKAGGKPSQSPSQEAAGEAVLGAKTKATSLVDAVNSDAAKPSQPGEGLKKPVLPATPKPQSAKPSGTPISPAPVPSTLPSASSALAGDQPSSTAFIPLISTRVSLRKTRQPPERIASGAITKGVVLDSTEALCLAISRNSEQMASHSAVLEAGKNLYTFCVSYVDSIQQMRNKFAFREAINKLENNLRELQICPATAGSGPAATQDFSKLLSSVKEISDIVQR
Protocol: as §1

COLO 205 cells = experiment: MTT assay, cytotoxic activity against COLO 205; type: cell-based
From the text: as §2

RET = RET (Homo sapiens, UniProt P07949); experiment: Mobility shift assay, RET; type: biochemical; conditions: mean of two independent experiments, SD shown
RET, sequence (P07949 29-1114): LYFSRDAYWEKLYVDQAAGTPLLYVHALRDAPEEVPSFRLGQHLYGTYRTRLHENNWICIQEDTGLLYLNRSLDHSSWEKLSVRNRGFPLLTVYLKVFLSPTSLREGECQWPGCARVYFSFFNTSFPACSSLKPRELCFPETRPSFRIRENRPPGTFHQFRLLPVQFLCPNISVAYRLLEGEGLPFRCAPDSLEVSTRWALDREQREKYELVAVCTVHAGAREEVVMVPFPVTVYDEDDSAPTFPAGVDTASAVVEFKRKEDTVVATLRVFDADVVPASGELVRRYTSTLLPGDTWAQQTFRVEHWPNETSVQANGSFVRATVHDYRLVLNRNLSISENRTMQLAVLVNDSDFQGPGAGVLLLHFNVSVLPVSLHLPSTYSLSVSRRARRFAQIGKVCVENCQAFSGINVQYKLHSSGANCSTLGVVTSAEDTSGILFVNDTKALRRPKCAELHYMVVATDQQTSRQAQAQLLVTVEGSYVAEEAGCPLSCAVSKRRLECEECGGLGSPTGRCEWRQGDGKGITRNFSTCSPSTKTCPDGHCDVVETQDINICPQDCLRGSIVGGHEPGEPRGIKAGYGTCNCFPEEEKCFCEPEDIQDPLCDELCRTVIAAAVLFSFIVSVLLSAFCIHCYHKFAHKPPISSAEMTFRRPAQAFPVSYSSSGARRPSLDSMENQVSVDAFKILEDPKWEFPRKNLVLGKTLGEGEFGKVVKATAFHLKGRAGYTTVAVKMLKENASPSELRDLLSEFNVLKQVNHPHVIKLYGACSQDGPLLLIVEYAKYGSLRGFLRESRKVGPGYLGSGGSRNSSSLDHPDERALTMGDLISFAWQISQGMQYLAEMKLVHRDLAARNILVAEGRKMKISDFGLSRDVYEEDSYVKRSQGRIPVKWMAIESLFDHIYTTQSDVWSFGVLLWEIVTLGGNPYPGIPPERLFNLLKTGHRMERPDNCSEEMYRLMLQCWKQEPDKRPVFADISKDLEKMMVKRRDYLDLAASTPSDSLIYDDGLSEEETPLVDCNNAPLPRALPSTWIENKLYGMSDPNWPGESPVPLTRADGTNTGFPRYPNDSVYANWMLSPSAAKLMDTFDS
Protocol: as §1

MST1R = MST1R (Homo sapiens, UniProt Q04912); experiment: Mobility shift assay, MST1R kinase inhibition; type: biochemical; conditions: mean of two independent experiments
MST1R, sequence (Q04912 25-1400): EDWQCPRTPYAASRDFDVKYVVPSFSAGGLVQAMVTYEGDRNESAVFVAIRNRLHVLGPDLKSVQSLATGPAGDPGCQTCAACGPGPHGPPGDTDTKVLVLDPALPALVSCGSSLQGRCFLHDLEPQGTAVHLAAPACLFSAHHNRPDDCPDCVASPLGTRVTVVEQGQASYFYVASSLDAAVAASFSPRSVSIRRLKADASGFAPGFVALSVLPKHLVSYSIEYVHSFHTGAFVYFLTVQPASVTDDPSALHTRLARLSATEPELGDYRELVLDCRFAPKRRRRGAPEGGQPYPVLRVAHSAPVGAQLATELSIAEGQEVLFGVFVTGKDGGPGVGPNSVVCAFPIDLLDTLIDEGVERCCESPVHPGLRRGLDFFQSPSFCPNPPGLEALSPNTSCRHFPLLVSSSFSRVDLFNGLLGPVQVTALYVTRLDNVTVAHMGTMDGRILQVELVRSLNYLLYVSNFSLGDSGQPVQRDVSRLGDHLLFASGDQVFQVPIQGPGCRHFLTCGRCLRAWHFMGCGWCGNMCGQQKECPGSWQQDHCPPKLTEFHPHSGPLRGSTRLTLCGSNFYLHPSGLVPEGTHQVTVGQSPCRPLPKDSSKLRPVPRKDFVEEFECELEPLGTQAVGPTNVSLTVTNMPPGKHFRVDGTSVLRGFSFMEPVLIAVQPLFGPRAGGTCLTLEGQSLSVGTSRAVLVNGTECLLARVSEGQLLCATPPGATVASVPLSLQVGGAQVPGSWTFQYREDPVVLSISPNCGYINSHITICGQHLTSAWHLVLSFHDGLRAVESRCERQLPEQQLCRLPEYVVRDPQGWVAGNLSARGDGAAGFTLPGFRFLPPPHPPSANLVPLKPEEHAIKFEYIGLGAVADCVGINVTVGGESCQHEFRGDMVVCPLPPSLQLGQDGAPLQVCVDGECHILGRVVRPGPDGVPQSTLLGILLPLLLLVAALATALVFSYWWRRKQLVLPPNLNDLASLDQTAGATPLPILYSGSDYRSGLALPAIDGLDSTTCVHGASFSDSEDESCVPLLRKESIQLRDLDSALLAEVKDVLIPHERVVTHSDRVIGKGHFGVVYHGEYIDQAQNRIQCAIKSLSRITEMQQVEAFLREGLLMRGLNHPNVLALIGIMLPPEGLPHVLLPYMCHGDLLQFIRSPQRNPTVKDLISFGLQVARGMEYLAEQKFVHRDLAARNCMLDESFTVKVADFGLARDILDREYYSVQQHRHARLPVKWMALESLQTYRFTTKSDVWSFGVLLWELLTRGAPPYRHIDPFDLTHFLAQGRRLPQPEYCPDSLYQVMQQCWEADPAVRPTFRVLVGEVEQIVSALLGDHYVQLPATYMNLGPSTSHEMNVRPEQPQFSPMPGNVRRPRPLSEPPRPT
Protocol: as §1

HCT-116 cells = experiment: MTT assay, cytotoxic activity against HCT-116; type: cell-based; conditions: Homo sapiens, average of three separate determinations, SD shown
From the text: as §2

FLT3 = molecular target: T2, FLT3 (Homo sapiens, UniProt P36888); experiment: Mobility shift assay, FLT3; type: biochemical; conditions: mean of two independent experiments, SD shown
T2 sequence (P36888 27-993): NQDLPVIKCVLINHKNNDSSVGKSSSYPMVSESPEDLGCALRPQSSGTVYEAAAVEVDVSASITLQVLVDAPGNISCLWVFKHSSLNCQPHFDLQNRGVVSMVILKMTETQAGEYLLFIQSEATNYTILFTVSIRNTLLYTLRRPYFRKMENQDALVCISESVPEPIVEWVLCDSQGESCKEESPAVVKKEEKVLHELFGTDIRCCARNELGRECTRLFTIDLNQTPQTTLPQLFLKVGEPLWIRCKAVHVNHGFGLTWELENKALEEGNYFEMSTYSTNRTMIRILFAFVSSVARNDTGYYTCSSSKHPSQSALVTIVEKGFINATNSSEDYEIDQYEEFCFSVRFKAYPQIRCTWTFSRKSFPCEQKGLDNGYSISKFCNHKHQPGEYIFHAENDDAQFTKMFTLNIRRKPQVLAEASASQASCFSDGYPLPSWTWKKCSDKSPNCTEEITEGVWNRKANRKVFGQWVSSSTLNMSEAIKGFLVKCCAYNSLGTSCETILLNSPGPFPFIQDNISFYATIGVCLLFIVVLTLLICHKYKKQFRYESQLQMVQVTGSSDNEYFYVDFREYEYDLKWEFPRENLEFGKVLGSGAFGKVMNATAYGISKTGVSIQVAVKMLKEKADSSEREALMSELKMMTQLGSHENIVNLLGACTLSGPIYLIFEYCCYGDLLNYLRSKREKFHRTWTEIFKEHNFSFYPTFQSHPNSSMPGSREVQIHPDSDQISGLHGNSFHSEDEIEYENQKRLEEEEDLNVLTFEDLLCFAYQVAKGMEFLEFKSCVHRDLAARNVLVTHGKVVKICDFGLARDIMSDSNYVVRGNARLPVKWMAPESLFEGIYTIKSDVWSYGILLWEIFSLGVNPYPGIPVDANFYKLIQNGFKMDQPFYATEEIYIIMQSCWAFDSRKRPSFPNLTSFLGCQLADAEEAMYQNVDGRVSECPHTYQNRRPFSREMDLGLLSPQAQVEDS
Protocol: as §1

PDGFRβ = PDGFRβ (Homo sapiens, UniProt P09619); experiment: Mobility shift assay, PDGFRβ; type: biochemical; conditions: mean of two independent experiments, SD shown
PDGFRβ, sequence (P09619 33-1106): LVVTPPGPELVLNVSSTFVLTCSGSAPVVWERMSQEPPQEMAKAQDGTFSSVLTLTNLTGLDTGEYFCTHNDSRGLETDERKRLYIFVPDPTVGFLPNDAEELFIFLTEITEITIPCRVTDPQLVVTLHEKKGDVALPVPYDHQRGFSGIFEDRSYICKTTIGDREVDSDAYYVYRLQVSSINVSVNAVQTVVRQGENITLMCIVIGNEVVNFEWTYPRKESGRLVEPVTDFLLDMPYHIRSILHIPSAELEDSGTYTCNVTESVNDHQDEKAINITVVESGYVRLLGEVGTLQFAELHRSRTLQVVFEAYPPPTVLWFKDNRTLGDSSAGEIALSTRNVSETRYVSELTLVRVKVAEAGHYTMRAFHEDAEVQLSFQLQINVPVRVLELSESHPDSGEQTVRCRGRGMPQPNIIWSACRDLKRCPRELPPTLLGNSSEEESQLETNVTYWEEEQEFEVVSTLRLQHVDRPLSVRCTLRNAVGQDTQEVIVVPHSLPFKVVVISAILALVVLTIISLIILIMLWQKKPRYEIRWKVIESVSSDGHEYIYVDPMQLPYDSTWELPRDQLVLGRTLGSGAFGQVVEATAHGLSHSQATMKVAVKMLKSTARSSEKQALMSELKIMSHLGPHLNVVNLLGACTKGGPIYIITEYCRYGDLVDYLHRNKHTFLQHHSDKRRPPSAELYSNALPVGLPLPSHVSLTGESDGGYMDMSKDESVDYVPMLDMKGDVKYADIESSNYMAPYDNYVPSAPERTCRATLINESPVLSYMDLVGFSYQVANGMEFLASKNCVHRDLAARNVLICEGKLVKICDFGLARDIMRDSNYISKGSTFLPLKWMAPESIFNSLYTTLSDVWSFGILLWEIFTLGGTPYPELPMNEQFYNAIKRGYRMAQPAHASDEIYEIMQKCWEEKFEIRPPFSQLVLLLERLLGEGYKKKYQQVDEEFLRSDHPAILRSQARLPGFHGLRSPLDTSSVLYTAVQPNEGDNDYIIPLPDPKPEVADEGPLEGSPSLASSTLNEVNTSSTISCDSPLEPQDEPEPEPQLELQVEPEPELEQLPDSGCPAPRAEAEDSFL
Protocol: as §1

IC50 (AXL): 0.95 ± 0.086 µM
IC50 (VEGFR-2): 1.16 ± 0.11 µM
IC50 (ABL): 1.68 ± 0.13 µM
IC50 (RET): 1.27 ± 0.1 µM
IC50 (MST1R): 0.045 µM
IC50 (FLT3): 6.93 ± 0.73 µM
IC50 (PDGFRβ): 1.13 ± 0.12 µM
Structure (SMILES): COc1cc2c(Oc3ccc(NC(=O)NN4C(=O)CSC4c4c(F)cccc4F)cc3F)ccnc2cc1OC1CCN(CC(N)=O)CC1 (stereo not drawn) [Compound 10a, 2–(4-((4–(4-(3–(2-(2,6-Difluorophenyl)-4-oxothiazolidin-3-yl)ureido)-2-fluorophenoxy)-6-methoxyquinolin-7-yl)oxy)piperidin-1-yl)acetamide]
IC50 [1]: > 10 µM
fold more potent than Regorafenib and Fruquintinib against COLO 205 (COLO 205 cells; COLO 205 IC50 compared with Regorafenib and Fruquintinib): over 90 fold
cell selectivity index (FHC IC50 value vs COLO 205 IC50 value) (COLO 205 cells; COLO 205 relative to FHC cells): over 90 fold
IC50 (COLO 205 cells; Homo sapiens, COLO 205, MTT, average of three separate determinations, SD shown): 0.11 ± 0.024 µM
IC50 (HCT-116 cells): 0.87 ± 0.11 µM
